The values below are quoted from earlier work in US7785578B2, “Non-invasive ocular drug delivery” (Aciont, Inc., priority 2002, dated 2010).

The conditions of this data set: following a 5 mg peribulbar injection; comparable to a high oral dose (approximately 7.5 mg).

Turning to `C[C@@H]1C[C@H]2[C@@H]3CCC4=CC(=O)C=C[C@]4(C)[C@@]3(F)[C@@H](O)C[C@]2(C)[C@@]1(O)C(=O)CO` [dexamethasone], the “systemic levels in plasma” value is 60 ng/mL.
